{"source": "patent US8735398B2", "about": "(Bristol-Myers Squibb Company, priority 2009, dated 2014)", "data": [{"test_system": "HCV 1b genotype", "experiment": "HCV replicon assay (HCV-neo replicon cells, wild-type)", "format": "cell-based, Hepatitis C virus", "details": "HCV 1b genotype replicon; class symbol; read-out: EC50 Range against HCV 1b", "procedure,_shortened": "(§1)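 HCV-neo replicon cells (wild-type) and replicon cells carrying NS5A resistance substitutions were treated with compounds; assay per O'Boyle et al. 2005, with luciferase-reporter read-out variants also used.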", "units": {"EC50": "nM"}, "values": [{"smiles": "CC1(C)CC(C)(C(=O)N2CCC[C@H]2C(=O)Nc2ccc(-c3cnc(-c4ccc(NC(=O)[C@@H]5CCCN5C(=O)C5(C)CC(C)(C)C(=O)N5)cc4)o3)cc2)NC1=O", "note": "(stereo partly drawn) [Example D-25, (2S,2′S)-N,N′-(4,4′-(oxazole-2,5-diyl)bis(4,1-phenylene))bis(1-(2,4,4-trimethyl-5-oxopyrrolidine-2-carbonyl)pyrrolidine-2-carboxamide)]", "EC50": "1000 to 10000"}]}, {"test_system": "HCV 1b genotype", "experiment": "HCV replicon assay (HCV-neo replicon cells, wild-type)", "format": "cell-based, Hepatitis C virus", "details": "HCV 1b genotype replicon; class symbols; read-out: EC50 Range against HCV 1b", "procedure,_shortened": "as §1", "units": {"EC50": "nM"}, "values": [{"smiles": "C[C@H](NC(=O)[C@H]1CCCO1)C(=O)Nc1ccc(-c2nnc(-c3ccc(NC(=O)[C@H](C)NC(=O)[C@H]4CCCO4)cc3)o2)cc1", "note": "[RK-35, (2R,2′R)-N,N′-(1,3,4-oxadiazole-2,5-diylbis(4,1-phenyleneimino((2S)-1-oxo-1,2-propanediyl)))ditetrahydro-2-furancarboxamide]", "EC50": "1000 to 10000"}]}, {"test_system": "HCV 1b genotype", "experiment": "HCV replicon assay (HCV-neo replicon cells, wild-type)", "format": "cell-based, Hepatitis C virus", "details": "HCV 1b genotype replicon; read-out: EC50 1b", "procedure,_shortened": "as §1", "units": {"EC50": "nM"}, "values": [{"smiles": "CC1(C)CC(C)(C(=O)N2CCC[C@H]2C(=O)Nc2ccc(-c3cnc(-c4ccc(NC(=O)[C@@H]5CCCN5C(=O)C5(C)CC(C)(C)C(=O)N5)cc4)o3)cc2)NC1=O", "note": "(stereo partly drawn) [Example D-25, (2S,2′S)-N,N′-(4,4′-(oxazole-2,5-diyl)bis(4,1-phenylene))bis(1-(2,4,4-trimethyl-5-oxopyrrolidine-2-carbonyl)pyrrolidine-2-carboxamide)]", "EC50": 5330}]}, {"test_system": "HCV 1b genotype", "experiment": "HCV replicon assay (HCV-neo replicon cells, wild-type)", "format": "cell-based, Hepatitis C virus", "details": "Hepatitis C virus, HCV 1b genotype replicon; class symbol; read-out: EC50 Range against HCV 1b", "procedure,_shortened": "as §1", "units": {"EC50": "nM"}, "values": [{"smiles": "C[C@H](NC(=O)[C@@H](O)c1ccccc1)C(=O)Nc1ccc(-c2cnc(-c3ccc(NC(=O)[C@H](C)NC(=O)[C@@H](O)c4ccccc4)cc3)o2)cc1", "note": "[OL-54, (2S,2′S)-N,N′-(1,3-oxazole-2,5-diyldi-4,1-phenylene)bis(2-(((2S)-2-hydroxy-2-phenylacetyl)amino)propanamide)]", "EC50": "4.57 to 99"}, {"smiles": "C[C@](O)(C(=O)N1CCC[C@H]1C(=O)Nc1ccc(-c2ccc(-c3ccc(NC(=O)[C@@H]4CCCN4C(=O)[C@](C)(O)c4ccccc4)cc3)o2)cc1)c1ccccc1", "note": "[JG-58, (2S,2′S)-N,N′-(2,5-furandiyldi-4,1-phenylene)bis(1-((2R)-2-hydroxy-2-phenylpropanoyl)-2-pyrrolidinecarboxamide)]", "EC50": "4.57 to 99"}, {"smiles": "CN(C)[C@@H](C(=O)N1CCC[C@@H]1C(=O)N1CCC[C@H]1C(=O)Nc1ccc(-c2cnc(-c3ccc(NC(=O)[C@@H]4CCCN4C(=O)[C@H]4CCCN4C(=O)[C@@H](c4ccccc4)N(C)C)cc3)o2)cc1)c1ccccc1", "note": "[Example D-39, (2S,2′S)-N,N′-(1,3-oxazole-2,5-diyldi-4,1-phenylene)bis(1-(((2R)-1-((2R)-2-(dimethylamino)-2-phenylacetyl)-2-pyrrolidinyl)carbonyl)-2-pyrrolidinecarboxamide)]", "EC50": "1000 to 10000"}, {"smiles": "O=C(Nc1ccc(-c2cc(-c3ccc(NC(=O)[C@@H]4CCCN4C(=O)[C@@H](O)c4ccccc4)cc3)[nH]n2)cc1)[C@@H]1CCCN1C(=O)[C@@H](O)c1ccccc1", "note": "[JG-33, (2S,2′S)-N,N′-(1H-pyrazole-3,5-diyldi-4,1-phenylene)bis(1-((2S)-2-hydroxy-2-phenylacetyl)-2-pyrrolidinecarboxamide)]", "EC50": "4.57 to 99"}, {"smiles": "COc1cccc(C(=O)N2CCC[C@H]2C(=O)Nc2ccc(-c3nnc(-c4ccc(NC(=O)[C@@H]5CCCN5C(=O)c5cccc(OC)c5)cc4)o3)cc2)c1", "note": "[RK-7, (2S,2′S)-N,N′-(1,3,4-oxadiazole-2,5-diyldi-4,1-phenylene)bis(1-(3-methoxybenzoyl)-2-pyrrolidinecarboxamide)]", "EC50": "100 to 999"}, {"smiles": "O=C(Nc1ccc(-c2cnc(-c3ccc(NC(=O)[C@@H]4C[C@@H](O)CN4C(=O)Cc4ccccc4)cc3)o2)cc1)[C@@H]1C[C@@H](O)CN1C(=O)Cc1ccccc1", "note": "[JG-2, (2S,4R,2′S,4′R)-N,N′-(1,3-oxazole-2,5-diyldi-4,1-phenylene)bis(4-hydroxy-1-(phenylacetyl)-2-pyrrolidinecarboxamide)]", "EC50": "< 4.57"}, {"smiles": "O=C(Nc1ccc(-c2cnc(-c3ccc(NC(=O)[C@@H]4CCCN4C(=O)[C@H](O)c4ccccc4Cl)cc3)o2)cc1)[C@@H]1CCCN1C(=O)[C@H](O)c1ccccc1Cl", "note": "[JG-26, (2S,2′S)-N,N′-(1,3-oxazole-2,5-diyldi-4,1-phenylene)bis(1-((2R)-2-(2-chlorophenyl)-2-hydroxyacetyl)-2-pyrrolidinecarboxamide)]", "EC50": "< 4.57"}, {"smiles": "O=C(Nc1ccc(-c2nncn2-c2ccc(NC(=O)[C@@H]3CCCN3C(=O)OCc3ccccc3)cc2)cc1)[C@@H]1CCCN1C(=O)OCc1ccccc1", "note": "[OL-14, (2S,2′S)-2,2′-[4H-1,2,4-triazole-3,4-diylbis(4,1-phenyleneiminocarbonyl)]bis-1-pyrrolidinecarboxylic acid, bis(phenylmethyl) ester]", "EC50": "1000 to 10000"}, {"smiles": "CN(C)[C@@H](C(=O)N1CC[C@@H](NC(=O)Nc2ccc(-c3cnc(-c4ccc(NC(=O)N[C@@H]5CCN(C(=O)[C@@H](c6ccccc6)N(C)C)C5)cc4)o3)cc2)C1)c1ccccc1", "note": "[FY-8, N′,N′″-(1,3-oxazole-2,5-diyldi-4,1-phenylene)bis(1-((3R)-1-((2R)-2-(dimethylamino)-2-phenylacetyl)-3-pyrrolidinyl)urea)]", "EC50": "100 to 999"}, {"smiles": "CC(=O)N1CCC[C@H]1C(=O)Nc1ccc(-c2cnc(-c3ccc(NC(=O)[C@@H]4C[C@@H](OC(C)(C)C)CN4C(=O)OCc4ccccc4)cc3)o2)cc1", "note": "[MS-2, benzyl (2S,4R)-2-((4-(5-(4-((((2S)-1-acetyl-2-pyrrolidinyl)carbonyl)amino)phenyl)-1,3-oxazol-2-yl)phenyl)carbamoyl)-4-tert-butoxy-1-pyrrolidinecarboxylate]", "EC50": "100 to 999"}, {"smiles": "C[C@H](NC(=O)OCc1ccccc1)C(=O)Nc1ccc(-c2n[nH]nc2-c2ccc(NC(=O)[C@H](C)NC(=O)OCc3ccccc3)cc2)cc1", "note": "[OL-18, [(1S)-1-methyl-2-oxo-2-[[4-[4-[4-[[(2S)-1-oxo-2-[[(phenylmethoxy)carbonyl]amino]propyl]amino]phenyl]-1H-1,2,3-triazol-5-yl]phenyl]amino]ethyl]-carbamic acid, phenylmethyl ester]", "EC50": "4.57 to 99"}, {"smiles": "C[C@H](NC(=O)Cc1ccccc1)C(=O)Nc1ccc(-c2nnc(-c3ccc(NC(=O)[C@H](C)NC(=O)Cc4ccccc4)cc3)o2)cc1", "note": "[RK-23, (2S,2′S)-N,N′-(1,3,4-oxadiazole-2,5-diyldi-4,1-phenylene)bis(2-((phenylacetyl)amino)propanamide)]", "EC50": "100 to 999"}, {"smiles": "CC(=O)N1CCC[C@H]1C(=O)Nc1ccc(-c2nnc(-c3ccc(NC(=O)[C@@H]4CCCN4C(=O)Cc4cccnc4)cc3)o2)cc1", "note": "[Example D-64, (2S)-1-acetyl-N-[4-[5-[4-[[[(2S)-1-(3-pyridinylacetyl)-2-pyrrolidinyl]carbonyl]amino]phenyl]-1,3,4-oxadiazol-2-yl]phenyl]-2-pyrrolidinecarboxamide]", "EC50": "1000 to 10000"}, {"smiles": "CC(=O)N1CCC[C@H]1C(=O)Nc1ccc(-c2cnc(-c3ccc(NC(=O)[C@@H]4CCCN4C(=O)Cc4ccccc4)cc3)o2)cc1", "note": "[MS-1, (2S)-1-acetyl-N-(4-(2-(4-((((2S)-1-(phenylacetyl)-2-pyrrolidinyl)carbonyl)amino)phenyl)-1,3-oxazol-5-yl)phenyl)-2-pyrrolidinecarboxamide]", "EC50": "100 to 999"}, {"smiles": "O=C(Nc1ccc(-c2nc[nH]c2-c2ccc(NC(=O)[C@@H]3CCCN3C(=O)[C@H](O)c3ccccc3)cc2)cc1)[C@@H]1CCCN1C(=O)[C@H](O)c1ccccc1", "note": "[JG-43, (2S,2′S)-N,N′-(1H-imidazole-4,5-diyldi-4,1-phenylene)bis(1-((2R)-2-hydroxy-2-phenylacetyl)-2-pyrrolidinecarboxamide)]", "EC50": "< 4.57"}]}, {"test_system": "HCV 1b genotype", "experiment": "HCV replicon assay (HCV-neo replicon cells, wild-type)", "format": "cell-based, Hepatitis C virus", "details": "Hepatitis C virus, HCV 1b genotype replicon; class symbols; read-out: EC50 Range against HCV 1b", "procedure,_shortened": "as §1", "units": {"EC50": "nM"}, "values": [{"smiles": "CC(Oc1cccc(Cl)c1)C(=O)N1CCC[C@H]1C(=O)Nc1ccc(-c2cnc(-c3ccc(NC(=O)[C@@H]4CCCN4C(=O)C(C)Oc4cccc(Cl)c4)cc3)o2)cc1", "note": "(stereo partly drawn) [XY-12, (2S,2′S)-N,N′-(1,3-oxazole-2,5-diyldi-4,1-phenylene)bis(1-(2-(3-chlorophenoxy)propanoyl)-2-pyrrolidinecarboxamide)]", "EC50": "100 to 999"}, {"smiles": "O=C(Nc1ccc(-c2cnc(-c3ccc(NC(=O)[C@@H]4CCCN4C(=O)c4ccco4)cc3)o2)cc1)[C@@H]1CCCN1C(=O)c1ccco1", "note": "[XY-37, (2S,2′S)-N,N′-(1,3-oxazole-2,5-diyldi-4,1-phenylene)bis(1-(2-furoyl)-2-pyrrolidinecarboxamide)]", "EC50": "100 to 999"}, {"smiles": "CC(C)C(C(=O)N1CCC[C@H]1C(=O)Nc1ccc(-c2cnc(-c3ccc(NC(=O)[C@@H]4CCCN4C(=O)C(C(C)C)N4C(=O)C5C6C=CC(C6)C5C4=O)cc3)o2)cc1)N1C(=O)C2C3C=CC(C3)C2C1=O", "note": "(stereo partly drawn) [JR-19, (2S,2′S)-N,N′-(2,5-oxazolediyldi-4,1-phenylene)bis[1-[2-(1,3,3a,4,7,7a-hexahydro-1,3-dioxo-4,7-methano-2H-isoindol-2-yl)-3-methyl-1-oxobutyl]-2-pyrrolidinecarboxamide]]", "EC50": "100 to 999"}, {"smiles": "O=C(Nc1ccc(-c2cnc(-c3ccc(NC(=O)[C@@H]4CCCN4C(=O)c4cccnc4)cc3)o2)cc1)[C@@H]1CCCN1C(=O)c1cccnc1", "note": "[XY-4, (2S,2′S)-N,N′-(1,3-oxazole-2,5-diyldi-4,1-phenylene)bis(1-(3-pyridinylcarbonyl)-2-pyrrolidinecarboxamide)]", "EC50": "100 to 999"}, {"smiles": "Cc1cc(CC(=O)N2C[C@H](O)C[C@H]2C(=O)Nc2ccc(-c3cnc(-c4ccc(NC(=O)[C@@H]5C[C@@H](O)CN5C(=O)Cc5cc(C)no5)cc4)o3)cc2)on1", "note": "[XY-52, (2S,4R,2′S,4′R)-N,N′-(1,3-oxazole-2,5-diyldi-4,1-phenylene)bis(4-hydroxy-1-((3-methyl-5-isoxazolyl)acetyl)-2-pyrrolidinecarboxamide)]", "EC50": "1000 to 10000"}, {"smiles": "CC1CC1C(=O)N1CCC[C@H]1C(=O)Nc1ccc(-c2cnc(-c3ccc(NC(=O)[C@@H]4CCCN4C(=O)C4CC4C)cc3)o2)cc1", "note": "(stereo partly drawn) [XY-16, (2S,2′S)-N,N′-(1,3-oxazole-2,5-diyldi-4,1-phenylene)bis(1-((2-methylcyclopropyl)carbonyl)-2-pyrrolidinecarboxamide)]", "EC50": "100 to 999"}, {"smiles": "O=C(Nc1ccc(-c2cnc(-c3ccc(NC(=O)[C@@H]4CCCN4C(=O)CN4C(=O)OC[C@H]4c4ccccc4)cc3)o2)cc1)[C@@H]1CCCN1C(=O)CN1C(=O)OC[C@H]1c1ccccc1", "note": "[JR-21, (2S,2′S)-N,N′-(2,5-oxazolediyldi-4,1-phenylene)bis[1-[[(4R)-2-oxo-4-phenyl-3-oxazolidinyl]acetyl]-2-pyrrolidinecarboxamide]]", "EC50": "1000 to 10000"}, {"smiles": "O=C(Nc1ccc(-c2cnc(-c3ccc(NC(=O)[C@@H]4CCCN4C(=O)c4ccoc4)cc3)o2)cc1)[C@@H]1CCCN1C(=O)c1ccoc1", "note": "[XY-38, (2S,2′S)-N,N′-(1,3-oxazole-2,5-diyldi-4,1-phenylene)bis(1-(3-furoyl)-2-pyrrolidinecarboxamide)]", "EC50": "4.57 to 99"}]}, {"test_system": "HCV 1b genotype", "experiment": "HCV replicon assay (HCV-neo replicon cells, wild-type)", "format": "cell-based, Hepatitis C virus", "details": "Hepatitis C virus, HCV 1b genotype replicon; read-out: EC50 1b", "procedure,_shortened": "as §1", "units": {"EC50": "nM"}, "values": [{"smiles": "CC(Oc1cccc(Cl)c1)C(=O)N1CCC[C@H]1C(=O)Nc1ccc(-c2cnc(-c3ccc(NC(=O)[C@@H]4CCCN4C(=O)C(C)Oc4cccc(Cl)c4)cc3)o2)cc1", "note": "(stereo partly drawn) [XY-12, (2S,2′S)-N,N′-(1,3-oxazole-2,5-diyldi-4,1-phenylene)bis(1-(2-(3-chlorophenoxy)propanoyl)-2-pyrrolidinecarboxamide)]", "EC50": 220}, {"smiles": "O=C(Nc1ccc(-c2cnc(-c3ccc(NC(=O)[C@@H]4C[C@@H](O)CN4C(=O)Cc4ccccc4)cc3)o2)cc1)[C@@H]1C[C@@H](O)CN1C(=O)Cc1ccccc1", "note": "[JG-2, (2S,4R,2′S,4′R)-N,N′-(1,3-oxazole-2,5-diyldi-4,1-phenylene)bis(4-hydroxy-1-(phenylacetyl)-2-pyrrolidinecarboxamide)]", "EC50": 2}, {"smiles": "C[C@H](NC(=O)OCc1ccccc1)C(=O)Nc1ccc(-c2n[nH]nc2-c2ccc(NC(=O)[C@H](C)NC(=O)OCc3ccccc3)cc2)cc1", "note": "[OL-18, [(1S)-1-methyl-2-oxo-2-[[4-[4-[4-[[(2S)-1-oxo-2-[[(phenylmethoxy)carbonyl]amino]propyl]amino]phenyl]-1H-1,2,3-triazol-5-yl]phenyl]amino]ethyl]-carbamic acid, phenylmethyl ester]", "EC50": 92}, {"smiles": "CC(=O)N1CCC[C@H]1C(=O)Nc1ccc(-c2nnc(-c3ccc(NC(=O)[C@@H]4CCCN4C(=O)Cc4cccnc4)cc3)o2)cc1", "note": "[Example D-64, (2S)-1-acetyl-N-[4-[5-[4-[[[(2S)-1-(3-pyridinylacetyl)-2-pyrrolidinyl]carbonyl]amino]phenyl]-1,3,4-oxadiazol-2-yl]phenyl]-2-pyrrolidinecarboxamide]", "EC50": 6570}]}]}
